The test system of one assay is chemokine receptors. The note with it: two D-substitutions in peptide T; cited from earlier work.
Assay [1] deals with neuropathic pain and inflammation. The note with it: animals; cited from earlier work.
The test system of assay [2] is CCR5/CCR2 chemokine receptor system, CCL2 chemotaxis of human monocytes. The experiment in a line: CCL2 (MCP-1) mediated human monocyte chemotaxis (FIG. 1). Format: cell-based. The note with it: FIG. 1, triplicate determinations. From the text: FIG. 1 illustrates that all-D-pentapeptide analogs of Peptide T inhibit CCL2 mediated human monocyte chemotaxis.
In order to overcome this limitation we hereby disclose an unexpected method of preserving potency. […] B. Pert, J. D. Rone, R. Nixon, M. Vance, B. Sandler, M. D. Lumpkin, D. J. Dieter, and M. R. Ruff. 1999. Peptide T blocks GP120/CCR5 chemokine receptor-mediated chemotaxis. Clin Immunol.
The FIG. 1 assay measured the peptide's ability to block CCL2 (MCP-1) chemotaxis.

A further assay relates to HIV gp120 neurotoxicity. The note with it: cited from earlier work; for EC50: read-out: EC50 (pM), antagonism of HIV gp120 neurotoxicity.
The test system of assay [3] is HIV (92HT596; R5/X4 isolate) entry via CXCR4, MAGI-CXC4 cells. The settings on record: peptide 1 nM, 48 hrs, mean and s.e.m of triplicate cultures; cited from earlier work.
The subject of assay [4] is HIV (92HT596; R5/X4 isolate) entry via CCR5, MAGI-CCR5 cells. The settings on record: peptide 1 nM, 48 hrs, mean and s.e.m of triplicate cultures; cited from earlier work.

“Also recorded” adds a separate entry of the source.

For the substance (D-A1, D-T8)-peptide T-NH2, in the assay on chemokine receptors, the “loss of potency versus peptide T” value is “over 100,000 fold”.

As for (all-D)-TTNYT, the oral efficacy entry in assay [1] was “prevent and reverse neuropathic pain and block inflammation”. Also, in assay [2], the “block of CCL2 (MCP-1) chemotaxis / CCR5/CCR2 chemokine receptor system” value is reported as “blocked”. As for ETWYS, in the assay with HIV gp120 neurotoxicity, the concentration giving a half-maximal response (EC50) (as a rule, the concentration at which the effect is half-maximal) is 13 pM. In assay [3], the “BFU (% Control) MAGI-CXC4” value is 65 +/− 5 % Control. Further, the “BFU (% Control) MAGI-CCR5” value in assay [4] is on record as 21 +/− 7 % Control.

With NTSYG, the half-maximal effective concentration (EC50) with HIV gp120 neurotoxicity is 10 pM. The “BFU (% Control) MAGI-CXC4” value in assay [3] is 60 +/− 8| % Control. For SSTYR, the EC50 in the assay on HIV gp120 neurotoxicity is 1 pM. In the case of STNYT, the EC50 in the assay on HIV gp120 neurotoxicity was 3 pM. For TDNYT [reference compound], the EC50 with HIV gp120 neurotoxicity is 3000 pM. TENYT [reference compound]: the “EC50 (pM), antagonism of HIV gp120 neurotoxicity” value in the assay on HIV gp120 neurotoxicity is “inactive”.

Consider TTNYT, for which the half-maximal effective concentration (EC50) in the assay on HIV gp120 neurotoxicity is 10 pM. For the same substance, the “BFU (% Control) MAGI-CXC4” value in assay [3] was 45 +/− 7 % Control. Further, in assay [4], the “BFU (% Control) MAGI-CCR5” value is reported as 23 +/− 4 % Control.

For TTNdYT [reference compound], in the assay with HIV gp120 neurotoxicity, the “EC50 (pM), antagonism of HIV gp120 neurotoxicity” value is “inactive” and the “activity / biopotency (gp120 neurotoxicity)” value is reported as “loss of all activity; also recorded: completely loses activity”. As for TTSFT [reference compound], the EC50 in the assay on HIV gp120 neurotoxicity is 100000 pM. Regarding TTSYT, in the assay with HIV gp120 neurotoxicity, the EC50 is 10 pM. Further, the “BFU (% Control) MAGI-CXC4” value in assay [3] is on record as 35 +/− 7 % Control. In addition, the “BFU (% Control) MAGI-CCR5” value in assay [4] is recorded as 23 +/− 5 % Control.

Values taken from patent US20140322251A1, “Peptides for Progressive Treating Multi-Focal Leukoencephalopathy and Related Conditions” (priority 2013, published 2014).
